Assay [1] concerns the target T1, Cholecystokinin receptor type A (Cavia porcellus, UniProt Q63931).
T1 sequence (Q63931 whole entry): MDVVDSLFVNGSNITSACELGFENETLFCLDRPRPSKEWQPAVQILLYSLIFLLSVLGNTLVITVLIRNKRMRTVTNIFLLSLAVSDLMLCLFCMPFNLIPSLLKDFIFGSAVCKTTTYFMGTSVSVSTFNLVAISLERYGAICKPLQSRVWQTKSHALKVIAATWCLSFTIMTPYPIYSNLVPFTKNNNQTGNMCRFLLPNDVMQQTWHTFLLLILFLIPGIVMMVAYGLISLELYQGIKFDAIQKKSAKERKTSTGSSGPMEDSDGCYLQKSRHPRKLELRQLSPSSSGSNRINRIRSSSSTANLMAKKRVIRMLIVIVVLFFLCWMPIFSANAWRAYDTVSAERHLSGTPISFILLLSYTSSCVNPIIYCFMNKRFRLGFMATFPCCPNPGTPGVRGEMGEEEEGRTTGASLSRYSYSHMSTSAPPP
Nature of the assay: Displacement of [125I]Bolton-Hunter-CCK-8 from guinea pig pancreas Cholecystokinin type A receptor.

The species named for assay [2] is Cavia porcellus. Nature of the assay: Compound was evaluated for its ability to stimulate PI hydrolysis in guinea pig pancreas relative to maximal response elicited by CCK-8. The format is functional.

For the compound `CN(C(=O)[C@H](CC(=O)O)NNC[C@H](CCCCNC(=O)/C=C\c1ccc(O)cc1)NC(=O)[C@H](Cc1c[nH]c2ccccc12)NC(=O)OC(C)(C)C)[C@@H](Cc1ccccc1)C(N)=O`, the IC50 in assay [1] stood at 250 nM. In assay [2], this compound came in with a Max response of 28%.

`CC(C)(C)OC(=O)N[C@H](CNN[C@@H](CCCCNC(=O)/C=C/c1ccc(O)cc1)C(=O)N[C@@H](CC(=O)O)C(=O)N[C@@H](Cc1ccccc1)C(N)=O)Cc1c[nH]c2ccccc12` yielded a 50% inhibitory concentration (IC50) in assay [1] of 930 nM. This compound also displayed a Max response in assay [2] of 5.6%. The corresponding values for `Cc1ccccc1NC(=O)NCCCC[C@H](NNC[C@H](Cc1c[nH]c2ccccc12)NC(=O)OC(C)(C)C)C(=O)N[C@@H](CC(=O)O)C(=O)N[C@@H](Cc1ccccc1)C(N)=O` are 470 nM and 8.9%.

As to `Cc1ccccc1NC(=O)NCCCC[C@H](NC(=O)[C@H](Cc1c[nH]c2ccccc12)NC(=O)OC(C)(C)C)C(=O)N[C@H](CNN[C@@H](Cc1ccccc1)C(N)=O)CC(=O)O`, the IC50 in assay [1] was determined as 300 nM. For the same compound, the Max response in assay [2] was 6.3%. Compound `CC(C)(C)OC(=O)N[C@@H](Cc1c[nH]c2ccccc12)C(=O)N[C@@H](CCCCNC(=O)/C=C\c1ccc(O)cc1)C(=O)N[C@H](CNN[C@@H](Cc1ccccc1)C(N)=O)CC(=O)O` showed a concentration for half-maximal inhibition (IC50) in assay [1] of 130 nM. This compound gave a Max response in assay [2] of 0%.

`CSCC[C@H](NC(=O)[C@H](Cc1ccc(OS(=O)(=O)O)cc1)NC(=O)[C@@H](N)CC(=O)O)C(=O)NCC(=O)N[C@@H](Cc1c[nH]c2ccccc12)C(=O)N[C@@H](CCSC)C(=O)N[C@@H](CC(=O)O)C(=O)N[C@@H](Cc1ccccc1)C(N)=O` [SINCALIDE] gave a Max response in assay [2] of 100%. In assay [1], `Cc1ccccc1NC(=O)NCCCC[C@@H](CNN[C@@H](CC(=O)O)C(=O)N(C)[C@@H](Cc1ccccc1)C(N)=O)NC(=O)[C@H](Cc1c[nH]c2ccccc12)NC(=O)OC(C)(C)C` gave an IC50 of 1600 nM. The compound also yielded a Max response in assay [2] of 0%. In turn, `CC(C)(C)OC(=O)N[C@@H](Cc1c[nH]c2ccccc12)C(=O)N[C@@H](CCCCNC(=O)/C=C\c1ccc(O)cc1)CNN[C@@H](CC(=O)O)C(=O)N[C@@H](Cc1ccccc1)C(N)=O` gave an IC50 in assay [1] of 40 nM. This compound registered a Max response in assay [2] of 44%. With `CSCC[C@H](NC(=O)[C@H](Cc1c[nH]c2ccccc12)NC(=O)OC(C)(C)C)C(=O)N[C@@H](CC(=O)O)C(=O)N[C@@H](Cc1ccccc1)C(N)=O`, the Max response in assay [2] was 100%.

Values taken from ChEMBL document CHEMBL1126470, “Toward developing peptidomimetics: Successful replacement of backbone amide bonds in tetrapeptide-based CCK-A receptor agonists” (Bioorg Med Chem Lett, 1993).
